Measurements reported in patent publication US11427556B2, “Urea derivatives as inhibitors of ASK1” (Hepagene Therapeutics (HK) Limited, priority 2017, dated 2022).
pEC50: −log10 of the molar value.

Molecular target: T1, Recombinant human ASK1 kinase (Homo sapiens, UniProt Q99683)
T1 construct: purchased Invitrogen Inc
T1 sequence (Q99683 1-1374): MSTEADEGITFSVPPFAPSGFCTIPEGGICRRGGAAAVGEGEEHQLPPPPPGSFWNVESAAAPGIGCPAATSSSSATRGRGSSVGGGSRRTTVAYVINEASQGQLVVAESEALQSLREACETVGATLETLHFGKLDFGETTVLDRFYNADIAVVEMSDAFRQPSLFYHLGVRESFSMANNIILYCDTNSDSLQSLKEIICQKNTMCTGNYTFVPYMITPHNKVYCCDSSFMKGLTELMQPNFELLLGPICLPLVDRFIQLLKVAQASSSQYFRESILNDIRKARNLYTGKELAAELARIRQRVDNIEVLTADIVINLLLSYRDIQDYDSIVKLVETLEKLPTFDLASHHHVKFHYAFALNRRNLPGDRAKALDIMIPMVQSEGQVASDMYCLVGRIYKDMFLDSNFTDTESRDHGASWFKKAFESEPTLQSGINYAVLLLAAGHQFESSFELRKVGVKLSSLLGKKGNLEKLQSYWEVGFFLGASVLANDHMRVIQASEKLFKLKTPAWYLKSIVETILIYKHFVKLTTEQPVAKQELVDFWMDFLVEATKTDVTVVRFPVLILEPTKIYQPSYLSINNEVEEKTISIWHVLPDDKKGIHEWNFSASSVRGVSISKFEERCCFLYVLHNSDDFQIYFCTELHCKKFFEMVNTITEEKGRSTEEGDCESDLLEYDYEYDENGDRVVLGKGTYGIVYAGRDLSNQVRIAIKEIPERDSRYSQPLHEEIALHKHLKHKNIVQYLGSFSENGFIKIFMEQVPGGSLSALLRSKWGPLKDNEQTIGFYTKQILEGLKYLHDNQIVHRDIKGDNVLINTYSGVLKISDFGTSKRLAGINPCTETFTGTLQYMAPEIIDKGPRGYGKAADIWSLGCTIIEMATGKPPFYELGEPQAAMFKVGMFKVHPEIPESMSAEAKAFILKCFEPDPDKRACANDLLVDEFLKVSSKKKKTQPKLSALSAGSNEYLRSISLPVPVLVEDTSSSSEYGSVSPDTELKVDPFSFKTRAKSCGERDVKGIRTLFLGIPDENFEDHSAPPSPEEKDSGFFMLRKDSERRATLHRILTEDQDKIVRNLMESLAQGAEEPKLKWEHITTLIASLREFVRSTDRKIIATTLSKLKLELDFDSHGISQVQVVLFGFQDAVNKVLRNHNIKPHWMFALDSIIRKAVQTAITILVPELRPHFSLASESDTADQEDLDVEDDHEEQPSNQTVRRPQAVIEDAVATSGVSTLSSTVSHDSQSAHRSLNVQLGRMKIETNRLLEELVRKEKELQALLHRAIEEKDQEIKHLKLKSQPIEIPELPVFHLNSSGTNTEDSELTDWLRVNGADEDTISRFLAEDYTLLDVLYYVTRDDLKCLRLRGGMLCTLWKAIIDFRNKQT
Assay: ASK1 kinase HTRF assay (HTRF KinEASE-STK, phosphorylation of biotinylated peptide substrate)
Format: biochemical
Conditions: not given
Protocol: Reagents: Recombinant human ASK1 kinase was from Invitrogen Inc. HTRF KinEASETM-STK S3 kit was obtained from Cisbio (Bedford, Mass.). All other reagents were of the highest grade commercially available.
Assay: The assay measures the phosphorylation level of a biotinylatd peptide substrate by the ASK1 kinase using HTRF detection. ASK1 kinase assay is based on HTRF KinEASETM-STK manual from Cisbio. Test compound, 1 uM STK-substrate-biotin, 3 nM of ASK1 kinase are incubated with 1*Kinase buffer with 5 mM MgCl2 and 1 mM DTT.

SMILES	pEC50
CC(C)n1cnnc1-c1cccc(NC(=O)Nc2nccc3ccccc23)n1 [Compound I-066]	> 7.30
CC(C)n1cnnc1-c1cccc(NC(=O)Nc2cccnc2)n1 [Compound I-032]	6.30 to 7.30
C[C@H](CO)n1cnnc1-c1cccc(NC(=O)Nc2ccc3ccccc3n2)n1 [Compound I-069]	> 7.30
C[C@H](CO)n1cnnc1-c1cccc(NC(=O)Nc2cc(C(=O)N3CCCCC3)ccn2)n1 [Compound I-110]	> 7.30
C[C@H](CO)n1cnnc1-c1cccc(NC(=O)Nc2cc(C(=O)N3CCNCC3)ccn2)n1 [Compound I-140]	> 7.30

Same assay, conditions: 3 nM ASK1 kinase, 1 uM STK-substrate-biotin, HTRF detection; read-out: EC50

SMILES	pEC50
CC(C)n1cnnc1-c1cccc(-n2ccn(-c3ccc(N4CCOCC4)cn3)c2=O)n1 [III-03, 1-(6-(4-Isopropyl-4H-1,2,4-triazol-3-yl)pyridin-2-yl)-3-(5-morpholinopyridin-2-yl)-1H-imidazol-2(3H)-one]	> 7.30
CC(C)n1cnnc1-c1cccc(NC(=O)Nc2cc([N+](=O)[O-])ccn2)n1 [Compound I-175]	> 7.30
C[C@H](CO)n1cnnc1-c1cccc(NC(=O)Nc2cc(C(=O)Nc3ccc(F)cc3)ccn2)n1 [Compound I-159]	> 7.30
CC(C)n1cnnc1-c1cccc(NC(=O)Nc2cc(C(=O)N3CCC(C)(O)CC3)ccn2)n1 [Compound I-138]	> 7.30
COc1ccc(NC(=O)Nc2cccc(-c3nncn3C(C)C)n2)nc1 [Compound I-051]	> 7.30
CC(C)n1cnnc1-c1cccc(NC(=O)Nc2cc(N3CCNCC3)ccn2)n1 [Compound I-095, 1-(6-(4-Isopropyl-4H-1,2,4-triazol-3-yl)pyridin-2-yl)-3-(4-(piperazin-1-yl)pyridin-2-yl)urea]	> 7.30
CC(C)n1cnnc1-c1cccc(NC(=O)Nc2cc(N3CCN(C4CC4)CC3)ccn2)n1 [Compound I-100]	> 7.30
CC(C)n1cnnc1-c1cccc(NC(=O)Nc2cc(C(=O)N3CCCC4CCCCC43)ccn2)n1 (centres unmarked) [Compound I-125]	> 7.30
CC(C)n1cnnc1-c1cccc(NC(=O)Nc2cccc(Br)n2)n1 [Compound I-179]	> 7.30
CC(C)n1cnnc1-c1cccc(NC(=O)Nc2cc(C(=O)Nc3ccc4ccccc4c3)ccn2)n1 [Compound I-154]	> 7.30
CNc1ccc(NC(=O)Nc2cccc(-c3nncn3C(C)C)n2)nc1 [Compound I-189]	> 7.30
C[C@H](CO)n1cnnc1-c1cccc(NC(=O)Nc2cc(N3CCN(S(C)(=O)=O)CC3)ccn2)n1 [Compound I-103]	> 7.30
CC(C)n1cnnc1-c1cccc(NC(=O)Nc2cc(C(=O)Nc3ccncc3)ccn2)n1 [Compound I-163]	> 7.30
CC(C)n1cnnc1-c1cccc(NC(=O)Nc2cc(I)ccn2)n1 [Compound I-173]	> 7.30
CC(C)n1cnnc1-c1cccc(NC(=O)Nc2ncccc2I)n1 [Compound I-172]	> 7.30
CC(C)n1cnnc1-c1cccc(NC(=O)Nc2cc(C(=O)N3CCCc4ccccc43)ccn2)n1 [Compound I-123]	> 7.30
C[C@H](CO)n1cnnc1-c1cccc(NC(=O)Nc2cc(-c3ccccc3)ccn2)n1 [Compound I-078]	> 7.30
Cc1cccnc1NC(=O)Nc1cccc(-c2nncn2C(C)C)n1 [Compound I-039]	> 7.30
CC(C)n1cnnc1-c1cccc(NC(=O)Nc2cc(-c3ccc(C4CC4)nc3)ccn2)n1 [Compound I-081]	> 7.30
CC(C)n1cnnc1-c1cccc(NC(=O)Nc2ccc(N3CCCC3)cn2)n1 [Compound I-165]	> 7.30
CC(C)n1cnnc1-c1cccc(NC(=O)Nc2cc(C(=O)NC3CCCCC3)ccn2)n1 [Compound I-151]	> 7.30
CC(C)n1cnnc1-c1cccc(NC(=O)Nc2ccc(N3CCOCC3)cn2)n1 [Compound I-093]	> 7.30
CC(CN)n1cnnc1-c1cccc(NC(=O)Nc2ccccn2)n1 (centres unmarked) [Compound I-030]	6.30 to 7.30
CC(C)n1cnnc1-c1cccc(NC(=O)Nc2cc(C(=O)Nc3cccnc3)ccn2)n1 [Compound I-162]	> 7.30

SMILES	pEC50
COc1ccnc(NC(=O)Nc2cccc(-c3nncn3[C@@H](C)CO)n2)c1 [Compound I-054]	6.30 to 7.30
CC(C)(C)n1cnnc1-c1cccc(NC(=O)Nc2cc(C(=O)N3CCCCC3)ccn2)n1 [Compound I-008, 3-[6-(4-tert-Butyl-4H-1,2,4-triazol-3-yl)pyridin-2-yl]-1-[4-(piperidine-1-carbonyl)pyridin-2-yl]urea]	> 7.30
CCc1ccnc(NC(=O)Nc2cccc(-c3nncn3C(C)C)n2)c1 [Compound I-042]	> 7.30
COCC(C)n1cnnc1-c1cccc(NC(=O)Nc2ccccn2)n1 (centres unmarked) [Compound I-031]	6.30 to 7.30
CC(C)n1cnnc1-c1cccc(NC(=O)Nc2cc(C(=O)O)ccn2)n1 [Compound I-202, 2-(3-(6-(4-Isopropyl-4H-1,2,4-triazol-3-yl)pyridin-2-yl)ureido)isonicotinic acid]	> 7.30
CC(C)n1cnnc1-c1cccc(NC(=O)Nc2cc(N(C)C)ccn2)n1 [Compound I-192]	> 7.30
CC(C)n1cnnc1-c1cccc(NC(=O)Nc2cc(C(C)(C)O)ccn2)n1 [Compound I-213]	> 7.30
CC(C)n1cnnc1-c1cccc(N2CCN(c3ccc(-c4ccc(F)cc4)cn3)C2=O)n1 [Compound V-06]	> 7.30
CC(C)n1cnnc1-c1cccc(NC(=O)Nc2cc(N3CCN(CCO)CC3)ccn2)n1 [Compound I-101]	> 7.30
Cc1ccc(NC(=O)Nc2cccc(-c3nncn3C(C)C)n2)cn1 [Compound I-041]	6.30 to 7.30
CC(C)n1cnnc1-c1cccc(NC(=O)Nc2ccc(C(C)(C)O)cn2)n1 [Compound I-214]	> 7.30
CC(C)n1cnnc1-c1cccc(NC(=O)Nc2cc(C(=O)N3CCCC[C@H]3C)ccn2)n1 [Compound I-120]	> 7.30
CC(C)n1cnnc1-c1cccc(NC(=O)Nc2cc(C(=O)N3CCC(N4CCOCC4)CC3)ccn2)n1 [Compound I-130]	> 7.30
C[C@H](CO)n1cnnc1-c1cccc(N2CCN(c3ccc(N4CCNCC4)cn3)C2=O)n1 [Compound V-22]	> 7.30
CC(C)n1cnnc1-c1cccc(NC(=O)Nc2cc(S(C)(=O)=O)ccn2)n1 [Compound I-204]	> 7.30
CC(C)n1cnnc1-c1cccc(NC(=O)Nc2ncccc2Cl)n1 [Compound I-180]	> 7.30
C[C@H](CO)n1cnnc1-c1cccc(NC(=O)Nc2cc(-c3ccc(C4CC4)nc3)ccn2)n1 [Compound I-002, 3-[4-(6-Cyclopropylpyridin-3-yl)pyridin-2-yl]-1-(6-{4-[(2R)-1-hydroxypropan-2-yl]-4H-1,2,4-triazol-3-yl}pyridin-2-yl)urea]	> 7.30
CC1CN(c2ccc(N3CCN(c4cccc(-c5nncn5C(C)C)n4)C3=O)nc2)CC(C)O1 (centres unmarked) [Compound V-16]	> 7.30
C[C@@H]1CCCCN1C(=O)c1ccnc(NC(=O)Nc2cccc(-c3nncn3[C@H](C)CO)n2)c1 [Compound I-121]	> 7.30
Cc1ccc(NC(=O)Nc2cccc(-c3nncn3C(C)C)n2)nc1 [Compound I-001, 1-(6-(4-Isopropyl-4H-1,2,4-triazol-3-yl)pyridin-2-yl)-3-(5-methylpyridin-2-yl) urea]	> 7.30
CC(C)n1cnnc1-c1cccc(NC(=O)Nc2cc(C(=O)Nc3ccccc3)ccn2)n1 [Compound I-152]	> 7.30
Cc1ccc(-n2ccn(-c3cccc(-c4nncn4C(C)C)n3)c2=O)nc1 [III-05]	> 7.30
CC(C)n1cnnc1-c1cccc(NC(=O)Nc2cc(C(=O)Nc3ccccc3F)ccn2)n1 [Compound I-156]	> 7.30
CC(C)n1cnnc1-c1cccc(NC(=O)Nc2ccc(C#N)cn2)n1 [Compound I-199]	> 7.30
